According to patent US9745283B2, “Uracil derivatives as AXL and c-MET kinase inhibitors” (priority 2011, dated 2017):

Assays:
[1] = target: recombinant human baculovirus-expressed AXL (Homo sapiens (Human), UniProt P30530); assay: AXL Kinase Assay (HTRF KinEASE); assay type: biochemical; conditions: average of two or more determinations
Description: The ability of compounds to inhibit the kinase activity of recombinant human baculovirus-expressed AXL was measured by homogeneous TRF (HTRF) using Cisbio's KinEASE™ assay system in white 384-well Optiplates. Assay buffer contained 1 mM DTT, 2 mM MnCl2, 2% DMSO, […] supplement enzymatic buffer, and 1× enzymatic buffer. A 2× concentration of tyrosine kinase (TK) substrate-biotin/ATP mixture made in assay buffer was added to plates at 10 μL/well using the Multidrop Combi (Thermo Fisher Scientific, Waltham, Mass.). […] Compounds (100 nL), diluted in 100% DMSO on the Biomek FX, (Beckman Coulter, Inc., Brea, Calif.), were transferred to the assay plates using the Biomek FX pintool (2.5% final DMSO in assay). […] Plates were sealed, briefly shaken and incubated at 25° C. for 30 minutes. […] Plates were sealed, briefly shaken and incubated at 25° C. for 1 hour.
(§1) Inhibition curves for compounds were generated by plotting percent control activity versus log 10 of the concentration of compound. IC50 values were calculated by nonlinear regression using the sigmoidal dose-response (variable slope) equation in GraphPad Prism as follows: y=bottom+(top−bottom)/(1+10(log IC50−x)*Hill Slope) where y is the % kinase activity at a given concentration of compound, x is the logarithm of the concentration of compound, bottom is the % of control kinase activity at the highest compound concentration tested, and top is the % of control kinase activity at the lowest compound concentration examined. The values for bottom and top were fixed at 0 and 100, respectively.

[2] = target: recombinant human baculovirus-expressed cMET (Homo sapiens (Human), UniProt P08581); assay: C-MET Kinase Assay (HTRF KinEASE); assay type: biochemical; conditions: average of two or more determinations; read-out: c-MET IC50
Description: The cMET kinase assay was performed in 384-well Fluotrac™ 200 HiBase microplates using the HTRF KinEASE™ assay described above for AXL except that the assay volume was reduced to half. Enzyme concentration was 8 ng/mL of recombinant human baculovirus-expressed cMET while the substrate concentrations were 0.1 μM and 0.02 μM for the biotinylated peptide and ATP, respectively. Instead of the Multidrop Combi, the BioRAPTR® FRD microfluidic workstation (Beckman Coulter, Brea, Calif.) was utilized for reagent additions.
as §1

Compound	IC50 [1] [nM]	IC50 [2] [nM]
C#CCn1c(=O)c(C(=O)Nc2ccc(Oc3ccnc4cc(OC)c(OC)cc34)c(F)c2)nn(C)c1=O [Example 115, 2-Methyl-3,5-dioxo-4-prop-2-ynyl-2,3,4,5-tetrahydro-[1,2,4]triazine-6-carboxylic acid [4-(6,7-dimethoxy-uinolin-4-yloxy)-3-fluoro-phenyl]-amide]	< 10	10 to 100
CCn1nc(C(=O)Nc2ccc(Oc3ccnc4cc(OC)c(OC)cc34)c(F)c2)c(=O)n(-c2ccc(F)cc2)c1=O [Example 105, 2-Ethyl-4-(4-fluoro-phenyl)-3,5-dioxo-2,3,4,5-tetrahydro-[1,2,4]triazine-6-carboxylic acid [4-(6,7-dimethoxy-quinolin-4-yloxy)-3-fluoro-phenyl]-amide]	< 10	10 to 100
COc1cc2nccc(Oc3ccc(NC(=O)c4cn(C)c(=O)n(-c5ccc(F)cc5)c4=O)cc3F)c2cc1OC [Example 2, 3-(4-Fluorophenyl)-1-methyl-2,4-dioxo-1,2,3,4-tetrahydropyrimidine-5-carboxylic acid [4-(6,7-dimethoxyquinolin-4-yloxy)-3-fluoro-phenyl]-amide]	< 10	< 10
COc1cc2nccc(Oc3ccc(NC(=O)c4cn(Cc5csc(C)n5)c(=O)n(-c5ccc(F)cc5)c4=O)cc3F)c2cc1OC [Example 75, 3-(4-Fluoro-phenyl)-1-(2-methyl-thiazol-4-ylmethyl)-2,4-dioxo-1,2,3,4-tetrahydro-pyrimidine-5-carboxylic acid [4-(6,7-dimethoxy-quinolin-4-yloxy)-3-fluoro-phenyl]-amide]	< 10	
CCn1cc(C(=O)Nc2ccc(Oc3ccnc4cc(OC)cc(OC)c34)cc2)c(=O)n(-c2ccc(F)cc2)c1=O [Example 39, 1-Ethyl-3-(4-fluorophenyl)-2,4-dioxo-1,2,3,4-tetrahydropyrimidine-5-carboxylic acid [4-(5,7-dimethoxyquinolin-4-yloxy)-phenyl]-amide]	< 10	
CCn1cc(C(=O)Nc2ccc(Oc3ccnc4cc(OC)c(OC)cc34)c(F)c2)c(=O)n(C2CCCCC2)c1=O [Example 25, 3-Cyclohexyl-1-ethyl-2,4-dioxo-1,2,3,4-tetrahydropyrimidine-5-carboxylic acid [4-(6,7-dimethoxyquinolin-4-yloxy)-3-fluorophenyl]-amide]		101 to 1000
CCn1cc(C(=O)Nc2ccc(Oc3ncnc4cc(OC)c(OC)cc34)cc2)c(=O)n(-c2ccc(F)cc2)c1=O [Example 142, 1-Ethyl-3-(4-fluorophenyl)-2,4-dioxo-1,2,3,4-tetrahydro-pyrimidine-5-carboxylic acid [4-(6,7-dimethoxy-quinazolin-4-yloxy)-phenyl]-amide]		10 to 100
COc1cc2nccc(Sc3ccc(NC(=O)c4cn(C(C)C)c(=O)n(-c5ccc(F)cc5)c4=O)cc3)c2cc1OC [Example 138, 3-(4-Fluoro-phenyl)-1-isopropyl-2,4-dioxo-1,2,3,4-tetrahydro-pyrimidine-5-carboxylic acid [4-(6,7-dimethoxy-quinolin-4-ylsulfanyl)-phenyl]-amide]		10 to 100
CCn1cc(C(=O)Nc2ccc(Oc3ccnc4cc(OCCOC)c(OC)cc34)c(F)c2)c(=O)n(-c2ccc(F)cc2)c1=O [Example 44, 1-Ethyl-3-(4-fluorophenyl)-2,4-dioxo-1,2,3,4-tetrahydropyrimidine-5-carboxylic acid {3-fluoro-4-[6-methoxy-7-(2-methoxyethoxy)quinolin-4-yloxy]-phenyl}-amide]		10 to 100
COc1cc2nccc(Oc3ccc(NC(=O)c4cn(CCOCc5ccccc5)c(=O)n(-c5ccc(F)cc5)c4=O)cc3F)c2cc1OC [Example 10, 1-(2-Benzyloxyethyl)-3-(4-fluorophenyl)-2,4-dioxo-1,2,3,4-tetrahydropyrimidine-5-carboxylic acid [4-(6,7-dimethoxyquinolin-4-yloxy)-3-fluorophenyl]-amide]		10 to 100
COc1cc2nccc(Oc3ccc(NC(=O)c4cn(CCOCc5ccccc5)c(=O)n(-c5ccc(F)cc5)c4=O)cc3)c2cc1OC [Example 19, 1-(2-Benzyloxyethyl)-3-(4-fluoro-phenyl)-2,4-dioxo-1,2,3,4-tetrahydropyrimidine-5-carboxylic acid [4-(6,7-dimethoxyquinolin-4-yloxy)-phenyl]-amide]		10 to 100
COc1cc2nccc(Oc3ccc(NC(=O)c4cn(CC5CC5)c(=O)n(-c5ccc(F)cc5)c4=O)nc3)c2cc1OC [Example 35, 1-Cyclopropylmethyl-3-(4-fluorophenyl)-2,4-dioxo-1,2,3,4-tetrahydropyrimidine-5-carboxylic acid [5-(6,7-dimethoxyquinolin-4-yloxy)pyridin-2-yl]-amide]		10 to 100
CCn1cc(C(=O)Nc2ccc(Nc3ccnc4cc(OC)c(OC)cc34)cc2)c(=O)n(-c2ccc(F)cc2)c1=O [Example 134, 1-Ethyl-3-(4-fluoro-phenyl)-2,4-dioxo-1,2,3,4-tetrahydro-pyrimidine-5-carboxylic acid [4-(6,7-dimethoxy-quinolin-4-ylamino)-phenyl]-amide]		101 to 1000

Other lines, results leading:

IC50 [1] [nM]	IC50 [2] [nM]	Compound
< 10	10 to 100	COc1cc2nccc(Oc3ccc(NC(=O)c4cn(CCN5CCCCC5)c(=O)n(-c5ccc(F)cc5)c4=O)cc3F)c2cc1OC [Example 27, 3-(4-Fluorophenyl)-2,4-dioxo-1-(2-piperidin-1-yl-ethyl)-1,2,3,4-tetrahydropyrimidine-5-carboxylic acid [4-(6,7-dimethoxyquinolin-4-yloxy)-3-fluorophenyl]-amide]
< 10		COc1cc2nccc(Oc3ccc(NC(=O)c4cn(C5CCCC5)c(=O)n(-c5ccc(F)cc5)c4=O)cc3F)c2cc1OC [Example 76, 1-Cyclopentyl-3-(4-fluoro-phenyl)-2,4-dioxo-1,2,3,4-tetrahydro-pyrimidine-5-carboxylic acid [4-(6,7-dimethoxy-quinolin-4-yloxy)-3-fluoro-phenyl]-amide]
	10 to 100	CCn1cc(C(=O)Nc2ccc(Sc3ccnc4cc(OC)c(OC)cc34)cc2)c(=O)n(-c2ccc(F)cc2)c1=O [Example 137, 1-Ethyl-3-(4-fluorophenyl)-2,4-dioxo-1,2,3,4-tetrahydro-pyrimidine-5-carboxylic acid [4-(6,7-dimethoxy-quinolin-4-ylsulfanyl)-phenyl]-amide]
< 10		CCn1cc(C(=O)Nc2ccc(Oc3ccnc4ccc(OC)c(OC)c34)cc2)c(=O)n(-c2ccc(F)cc2)c1=O [Example 167, 1-Ethyl-3-(4-fluoro-phenyl)-2,4-dioxo-1,2,3,4-tetrahydro-pyrimidine-5-carboxylic acid [4-(5,6-dimethoxy-quinolin-4-yloxy)-phenyl]-amide]
	10 to 100	COc1cc2nccc(Oc3ccc(NC(=O)c4nn(CC5CC5)c(=O)n(-c5ccc(F)cc5)c4=O)cc3F)c2cc1OC [Example 133, 2-Cyclopropylmethyl-4-(4-fluorophenyl)-3,5-dioxo-2,3,4,5-tetrahydro-[1,2,4]triazine-6-carboxylic acid [4-(6,7-dimethoxy-quinolin-4-yloxy)-3-fluoro-phenyl]-amide]
	10 to 100	COc1cc2nccc(Oc3ccc(NC(=O)c4cn(CC=C(C)C)c(=O)n(-c5ccc(F)cc5)c4=O)cc3F)c2cc1OC [Example 15, 3-(4-Fluorophenyl)-1-(3-methyl-but-2-enyl)-2,4-dioxo-1,2,3,4-tetrahydropyrimidine-5-carboxylic acid [4-(6,7-dimethoxyquinolin-4-yloxy)-3-fluorophenyl]-amide]
	101 to 1000	CCn1cc(C(=O)N(C)c2ccc(Oc3ccnc4cc(OC)c(OC)cc34)c(F)c2)c(=O)n(-c2ccc(F)cc2)c1=O [Example 48, 1-Ethyl-3-(4-fluorophenyl)-2,4-dioxo-1,2,3,4-tetrahydropyrimidine-5-carboxylic acid [4-(6,7-dimethoxyquinolin-4-yloxy)-3-fluoro-phenyl]-methyl-amide]
	10 to 100	COc1cc2nccc(Oc3c(C)cc(NC(=O)c4cn(C(C)C)c(=O)n(-c5ccc(F)cc5)c4=O)cc3C)c2cc1OC [Example 162, 3-(4-Fluoro-phenyl)-1-isopropyl-2,4-dioxo-1,2,3,4-tetrahydro-pyrimidine-5-carboxylic acid [4-(6,7-dimethoxy-quinolin-4-yloxy)-3,5-dimethyl-phenyl]-amide]
	10 to 100	CCn1cc(C(=O)Nc2ccc(Oc3ccnc4cc(OC)c(OC)cc34)c(C(C)C)c2)c(=O)n(-c2ccc(F)cc2)c1=O [Example 155, 1-Ethyl-3-(4-fluoro-phenyl)-2,4-dioxo-1,2,3,4-tetrahydro-pyrimidine-5-carboxylic acid [4-(6,7-dimethoxy-quinolin-4-yloxy)-3-isopropyl-phenyl]-amide]
